The record followed here is patent US20070219186A1, “Pyrazolo[1,5-A]pyrimidine derivatives and methods of use thereof” (priority 2006, published 2007).

pIC50: −log10 of the molar value. Where two headings read alike, the source gives them in different places.

This assay addresses T1, human B-Raf (Homo sapiens, UniProt P15056).
T1 construct: Flag; GST; made in house; host or cells: Sf9 insect cells (B-Raf); E. coli (MEK1-GST)
The assay is described as follows: B-Raf Kinase to MEK1 ELISA. The assay is classed as biochemical. The following applies: for inhibition at 10 µM: read-out: % Inhib./10 uM. In outline: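 Read-out is a DELFIA europium signal from phospho-MEK1 (Ser217/221) antibody after capture of GST-MEK1 (50 nM final) on anti-GST plates. Phosphorylation comes from Sf9-expressed Flag/GST human B-Raf (~20 ng) with ATP/MgCl2, 60 min RT, pH 7.2 MOPS.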
A general note: An ELISA detects its analyte on a solid surface through an enzyme-linked reagent.

Setting [1] is: median, cpd concentrations from 10 μM to 30 nM in half log dilutions, read-out: Median IC50.

The pIC50 is the IC50 on a negative log10 scale, so that one unit is a factor of ten.

T1 sequence (P15056 whole entry): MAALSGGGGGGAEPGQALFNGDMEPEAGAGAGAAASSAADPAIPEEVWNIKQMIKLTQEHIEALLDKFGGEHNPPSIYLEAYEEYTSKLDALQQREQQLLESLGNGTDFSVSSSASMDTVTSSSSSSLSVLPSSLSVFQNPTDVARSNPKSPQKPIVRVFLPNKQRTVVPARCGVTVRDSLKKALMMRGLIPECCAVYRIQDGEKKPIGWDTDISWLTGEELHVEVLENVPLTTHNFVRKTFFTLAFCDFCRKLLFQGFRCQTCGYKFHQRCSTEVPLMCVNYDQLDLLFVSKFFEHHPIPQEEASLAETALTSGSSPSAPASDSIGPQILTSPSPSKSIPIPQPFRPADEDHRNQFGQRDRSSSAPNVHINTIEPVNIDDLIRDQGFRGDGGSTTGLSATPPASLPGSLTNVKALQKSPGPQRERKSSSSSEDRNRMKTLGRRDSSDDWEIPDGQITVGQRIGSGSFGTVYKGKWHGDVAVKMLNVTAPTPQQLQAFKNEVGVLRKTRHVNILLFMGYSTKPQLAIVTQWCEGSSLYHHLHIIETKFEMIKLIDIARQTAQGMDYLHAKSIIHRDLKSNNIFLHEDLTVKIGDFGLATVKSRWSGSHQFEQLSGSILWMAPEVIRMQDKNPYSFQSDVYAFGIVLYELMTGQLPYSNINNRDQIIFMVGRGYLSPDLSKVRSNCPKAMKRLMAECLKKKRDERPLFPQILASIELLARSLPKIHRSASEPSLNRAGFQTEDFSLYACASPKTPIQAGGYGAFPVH

With `O=C(Nc1cccc(-c2ccnc3cc(N4CCOCC4)nn23)c1)Nc1cccc(C(F)(F)F)c1` [Example 199, N-[3-(2-morpholin-4-ylpyrazolo[1,5-a]pyrimidin-7-yl)phenyl]-N′-[3-(trifluoromethyl)phenyl]urea], the inhibition at 10 µM was 96%. For the same molecule, under setting [1], the pIC50 was 6.92.
Consider `CC(=O)c1ccc(-c2cnn3c(-c4cccc(NC(=O)c5cccc(C(F)(F)F)c5)c4)ccnc23)cc1` [Example 300, N-{3-[3-(4-acetylphenyl)pyrazolo[1,5-a]pyrimidin-7-yl]phenyl}-3-(trifluoromethyl)benzamide], for which the pIC50 was 5.35 and the inhibition at 10 µM was 71%.
For `CCNC(=O)c1cnn2c(-c3cccc(NC(=O)c4cccc(C(F)(F)F)c4)c3)ccnc12` [Example 51, N-ethyl-7-(3-{[3-(trifluoromethyl)benzoyl]amino}phenyl)pyrazolo[1,5-a]pyrimidine-3-carboxamide], the inhibition at 10 µM is 50%.
Consider `O=C(Nc1cccc(-c2ccnc3c(-c4cccc(C(F)(F)F)c4)cnn23)c1)c1cccc(C(F)(F)F)c1` [Example 291, 3-(trifluoromethyl)-N-(3-{3-[3-(trifluoromethyl)phenyl]pyrazolo[1,5-a]pyrimidin-7-yl}phenyl)benzamide], for which the inhibition at 10 µM is 33%. In addition, under setting [1], the pIC50 is less than 5.00.
Taken in the same sequence, the figures for `CCOC(=O)c1cnn2c(-c3cccc(NC(=O)c4ccc(OC)c(Cl)c4)c3)ccnc12` [Example 73, ethyl 7-{3-[(3-chloro-4-methoxybenzoyl)amino]phenyl}pyrazolo[1,5-a]pyrimidine-3-carboxylate] were 5% and less than 5.00.
The corresponding values for `O=Cc1cc(C=O)cc(-c2cnn3c(-c4cccc(NC(=O)c5cccc(C(F)(F)F)c5)c4)ccnc23)c1` [Example 310, N-{3-[3-(3,5-diformylphenyl)pyrazolo[1,5-a]pyrimidin-7-yl]phenyl}-3-(trifluoromethyl)benzamide] are 37% and less than 5.00.
The corresponding values for `CN(C)CCc1ccc(-c2cnn3c(-c4cccc(NC(=O)c5cccc(C(F)(F)F)c5)c4)ccnc23)cc1` [Example 289, N-[3-(3-{4-[2-(dimethylamino)ethyl]phenyl}pyrazolo[1,5-a]pyrimidin-7-yl)phenyl]-3-(trifluoromethyl)benzamide] are 86% and 7.59.
On to `O=C(Nc1cccc(-c2ccnc3c(-c4cccnc4)cnn23)c1)c1cccc(C(F)(F)F)c1` [Example 155, N-[3-(3-pyridin-3-ylpyrazolo[1,5-a]pyrimidin-7-yl)phenyl]-3-(trifluoromethyl)benzamide], for which the pIC50 was 7.02 and the inhibition at 10 µM was 103%.
`Nc1cccc(-c2cnn3c(-c4cccc(NC(=O)c5cccc(C(F)(F)F)c5)c4)ccnc23)c1` [Example 156, N-{3-[3-(3-aminophenyl)pyrazolo[1,5-a]pyrimidin-7-yl]phenyl}-3-(trifluoromethyl)benzamide]: the pIC50 was 7.00 and the inhibition at 10 µM was 86%.
For the molecule `O=C(Nc1cccc(-c2ccnc3c(C(=O)NCCN4CCOCC4)cnn23)c1)Nc1ccc(Cl)c(C(F)(F)F)c1` [Example 123, 7-{3-[({[4-chloro-3-(trifluoromethyl)phenyl]amino}carbonyl)amino]phenyl}-N-(2-morpholin-4-ylethyl)pyrazolo[1,5-a]pyrimidine-3-carboxamide], the pIC50 was 6.92 and the inhibition at 10 µM was determined as 93%.
On to `COc1ccc(C(=O)Nc2cccc(-c3ccnc4cc(-c5ccncc5)nn34)c2)cc1C(F)(F)F` [Example 130, 4-methoxy-N-[3-(2-pyridin-4-ylpyrazolo[1,5-a]pyrimidin-7-yl)phenyl]-3-(trifluoromethyl)benzamide], for which the inhibition at 10 µM came out at 91%. The pIC50 under setting [1] was 7.15.
Consider `CCOC(=O)c1cnn2c(-c3ccc(Cl)c(NC(=O)c4ccc(C)c(C(F)(F)F)c4)c3)ccnc12` [Example 106, ethyl 7-(4-chloro-3-{[4-methyl-3-(trifluoromethyl)benzoyl]amino}phenyl)pyrazolo[1,5-a]pyrimidine-3-carboxylate], for which the inhibition at 10 µM worked out at 2%. In addition, the pIC50 under setting [1] is less than 5.00.
As for `CCOC(=O)c1cnn2c(-c3cccc(NC(=O)c4cc(C(F)(F)F)cc(Cl)c4F)c3)ccnc12` [Example 28, ethyl 7-(3-{[3-chloro-2-fluoro-5-(trifluoromethyl)benzoyl]amino}phenyl)pyrazolo[1,5-a]pyrimidine-3-carboxylate], the inhibition at 10 µM turned out to be 19%. Further, the pIC50 under setting [1] was less than 5.00.
Taken in the same sequence, the figures for `O=C(Nc1cccc(-c2ccnc3cc(-c4ccncc4)nn23)c1)c1ccc(Cl)cc1` [Example 151, 4-chloro-N-[3-(2-pyridin-4-ylpyrazolo[1,5-a]pyrimidin-7-yl)phenyl]benzamide] were 33% and less than 5.00.
The corresponding values for `CC(C)(C)OC(=O)N1CCN(c2cc3nccc(-c4cccc(NC(=O)c5cccc(C(F)(F)F)c5)c4)n3n2)CC1` [Example 206, tert-butyl 4-[7-(3-{[3-(trifluoromethyl)benzoyl]amino}phenyl)pyrazolo[1,5-a]pyrimidin-2-yl]piperazine-1-carboxylate] are 18% and less than 5.00.
With `N#Cc1ccc(-c2cnn3c(-c4cccc(NC(=O)c5cccc(C(F)(F)F)c5)c4)ccnc23)cc1` [Example 295, N-{3-[3-(4-cyanophenyl)pyrazolo[1,5-a]pyrimidin-7-yl]phenyl}-3-(trifluoromethyl)benzamide], the inhibition at 10 µM is 41%. Further, the pIC50 under setting [1] is less than 5.00.
On to `CCOC(=O)c1cnn2c(-c3cccc(NC(=O)c4ccc(OC)c(C(F)(F)F)c4)c3)ccnc12` [Example 30, ethyl 7-(3-{[4-methoxy-3-(trifluoromethyl)benzoyl]amino}phenyl)pyrazolo[1,5-a]pyrimidine-3-carboxylate], for which the inhibition at 10 µM amounted to 75%. The pIC50 under setting [1] is 5.89.
The corresponding values for `Cc1ccc(C(=O)Nc2cccc(-c3ccnc4cc(-c5ccncc5)nn34)c2)cc1C(F)(F)F` [Example 134, 4-methyl-N-[3-(2-pyridin-4-ylpyrazolo[1,5-a]pyrimidin-7-yl)phenyl]-3-(trifluoromethyl)benzamide] are 96% and 7.40.
The corresponding values for `Cc1ccc(C(=O)Nc2cccc(-c3ccnc4c(C(N)=O)cnn34)c2)cc1C(F)(F)F` [Example 67, 7-(3-{[4-methyl-3-(trifluoromethyl)benzoyl]amino}phenyl)pyrazolo[1,5-a]pyrimidine-3-carboxamide] are 6% and less than 5.00.
As for `Cc1ccc(C(=O)Nc2cccc(-c3ccnc4c(C#N)cnn34)c2)cc1C(F)(F)F` [Example 69, N-[3-(3-cyanopyrazolo[1,5-a]pyrimidin-7-yl)phenyl]-4-methyl-3-(trifluoromethyl)benzamide], the inhibition at 10 µM was 13%. Moreover, the pIC50 under setting [1] is less than 5.00.
Turning to `CN(C)c1cc2nccc(-c3cccc(NC(=O)c4cccc(C(F)(F)F)c4)c3)n2n1` [Example 187, N-{3-[2-(dimethylamino)pyrazolo[1,5-a]pyrimidin-7-yl]phenyl}-3-(trifluoromethyl)benzamide], the inhibition at 10 µM is 31%. Moreover, the pIC50 under setting [1] was less than 5.00.
